“And” between values parts separate entries of the source, which are not always exact repeats. Identical values can stand only once. Like-named read-outs stand apart in the source and are kept apart here.
Assays:
[1] = Tissue concentrations 75 min after oral administration; assay type: in vivo, mouse; details: for concentration at 75 min: 30 mg/kg, 30 mg/kg oral, individual mice
Description: (§1) C57BL/6 mice that had been denied access to food overnight received the indicated oral dose of DS20060511, and blood samples were collected from the tail vein at the indicated timepoints. Plasma samples for quantitation of DS20060511 were prepared by centrifugation. Another group of mice received oral administration DS20060511 (30 mg kg^−1) and euthanized 75 min later. The soleus and gastrocnemius muscles, heart, and inguinal WAT were removed and homogenized in water (5 vol.) for quantitation of the drug concentrations. Plasma samples and tissue homogenates were analyzed by LC-MS/MS (Nexera MP System, SHIMADZU, Kyoto, Japan; API4000 System, SCIEX, Framingham, MA). The tissue concentrations of the compound were calculated by assuming the volume of 1 g of tissue is 1 mL. Evaluation of the metabolic stability of the compound to mouse and human cytochrome P450 (CYP) was conducted as follows. The test compound (1 μM) was incubated with pooled liver microsomes (0.1 mg mL^−1) in sodium phosphate buffer (100 mM, pH 7.4) at 37 °C with an NADPH generating system: β-nicotinamide adenine dinucleotide phosphate (β-NADP) 1 mM, D-glucose 6-phosphate (G-6-P) 10 mM, glucose 6-phosphate dehydrogenase (G-6-PDH) 1 U mL^−1, and magnesium chloride 3.3 mM. After 30 min incubation, the reaction was terminated by addition of acetonitrile and samples were analyzed by LC-MS/MS. The results were expressed as the amount of compound remaining (expressed as a percentage), based on the ratio of the relative area to that in the control (without reaction).

[2] = test system: isolated skeletal muscles; experiment: 2-DG uptake with muscle contraction (5 Hz electrical stimulation) in isolated muscles; parameters: species or system mouse; details: for IC 2DOG: incubation 10 min
Description: The soleus or EDL muscle was removed from anesthetized mice (isoflurane anesthesia) that had been denied access to food overnight, and incubated with oxygenated (95% O2/5% CO2) Krebs-Henseleit Bicarbonate (KHB) buffer (118.1 mM NaCl, 4.7 mM KCl, 1.1 mM KH2PO4, 1.2 mM MgSO4, 2.5 mM CaCl2, and 25 mM NaHCO3, pH7.4) in the presence of 11.1 mM glucose at 37 °C. The muscle specimens were then treated with the indicated concentrations of the compounds in KHB buffer containing 11.1 mM glucose and 8 mM mannitol for 10 min at 37 °C. Thereafter, the muscles were rinsed with KHB buffer containing 8 mM mannitol and the compounds for 5 min at 37 °C. Lastly, the muscles were treated with the compounds in KHB buffer containing 1 mM 2-DG (with 0.3 μCi mL^−1 [^3H]-2-DG) and 8 mM mannitol (with 0.03 μCi mL^−1 [^14C]-mannitol) for 10 min at 37 °C. After the muscle specimens were washed, they were lysed with 1 N NaOH and neutralized with 1 N HCl. The ^14C- and ^3H-specific activities were counted with a liquid scintillation counter. The specific uptake of 2-DG was calculated by subtracting the nonspecific uptake of mannitol from the total 2-DG uptake. To investigate the effects of muscle contraction, muscle contraction was induced by electrical stimulation with 5 Hz (1 ms pulse duration, 100 V) for 10 min (SEN-5201, Nihon Koden, Tokyo, Japan).

[3] = Pharmacokinetics: plasma concentration after oral administration; assay type: in vivo, mouse; details: for concentration at 0.5 hr / concentration at 1.25 hr / concentration at 2 hr / concentration at 4 hr / concentration at 6 hr: plasma, individual mice; for concentration at 0.5 hr: read-out: Conc. (µM) 0.5 hr; for concentration at 1.25 hr: read-out: Conc. (µM) 1.25 hr; for concentration at 2 hr: read-out: Conc. (µM) 2 hr; for concentration at 4 hr: read-out: Conc. (µM) 4 hr; for concentration at 6 hr: read-out: Conc. (µM) 6 hr; for maximal plasma concentration: at 30 min
Description: as §1

[4] = DS20060511 1 μM, electrical stimulation +, muscles #1-3
[5] = C57BL/6, mouse, po, 1 mg/kg, 1 mg/kg oral
[6] = C57BL/6, mouse, po, 30 mg/kg, 30 mg/kg oral

COc1ccc2c(C)c(C(=O)O)ccc2c1C1C2=C(CC(C)(C)CC2=O)OC2=C1C(=O)CC(C)(C)C2 [DS20060511]
concentration at 75 min ([1]; C57BL/6, mouse, gastrocnemius muscle, po, Gastro. muscle, read-out: Conc. (µM) Gastro.): 8 µM
concentration at 75 min ([1]; C57BL/6, mouse, heart, po, heart, read-out: Conc. (µM) Heart): 21.3 µM
concentration at 75 min ([1]; C57BL/6, mouse, inguinal WAT, po, WAT, read-out: Conc. (µM) WAT): 6.8 µM
concentration at 75 min ([1]; C57BL/6, mouse, soleus muscle, po, soleus, read-out: Conc. (µM) Soleus): 10.8 µM
concentration at 75 min ([1]; Gastro. muscle, read-out: Conc. (µM) Gastro.): 9.3 µM and 7.1 µM and 8.8 µM
concentration at 75 min ([1]; WAT, read-out: Conc. (µM) WAT): 5.9 µM and 5.0 µM and 4.1 µM
concentration at 75 min ([1]; heart, read-out: Conc. (µM) Heart): 21.0 µM and 19.6 µM and 18.0 µM
concentrations in tissues (in words) ([1]; skeletal muscle, WAT, heart, 75 min after oral 30 mg kg−1): almost comparable concentrations among the skeletal muscle, WAT, and heart
concentration at 75 min ([1]; soleus, read-out: Conc. (µM) Soleus): 13.8 µM and 9.8 µM and 11.1 µM
IC 2DOG [2, 4]: 385 nmol/g and 372 nmol/g and 382 nmol/g
Raio (2-DG uptake relative to unstimulated control) [2, 4]: 2.15 and 2.08 and 2.17
IC 2DOG ([2]; DS20060511 10 μM, electrical stimulation +, muscles #1-3): 366 nmol/g and 368 nmol/g and 397 nmol/g
2-DG uptake with electrical muscle stimulation ([2]; vs electrical stimulation alone, Fig. 6a): elevated to a greater degree
concentration at 0.5 hr [3, 5]: 0.6 µM
concentration at 1.25 hr [3, 5]: 0.23 µM
concentration at 2 hr [3, 5]: 0 µM
concentration at 4 hr [3, 5]: 0 µM
concentration at 6 hr [3, 5]: 0 µM
concentration at 4 hr ([3]; C57BL/6, mouse, po, 10 mg/kg, 10 mg/kg oral): 1.2 µM
concentration at 0.5 hr [3, 6]: 77.7 µM
concentration at 1.25 hr [3, 6]: 49.6 µM
concentration at 2 hr [3, 6]: 35 µM
maximal plasma concentration ([3]; oral 1 mg kg−1, normal mice): 0.6 µM
maximal plasma concentration ([3]; oral 10 mg kg−1): 16.5 µM
maximal plasma concentration ([3]; oral 30 mg kg−1): 71.4 µM
concentration at 0.5 hr ([3]; 1 mg/kg oral, 1 mg/kg): 0.5 µM and 0.44 µM and 0.65 µM
concentration at 1.25 hr ([3]; 1 mg/kg oral, 1 mg/kg): 0.268 µM and 0.4 µM and 0.221 µM
concentration at 0.5 hr ([3]; 10 mg/kg oral, 10 mg/kg): 17.9 µM and 8.3 µM and 19.0 µM and 20.9 µM
concentration at 1.25 hr ([3]; 10 mg/kg oral, 10 mg/kg): 3.9 µM and 5.3 µM and 9.9 µM and 11.4 µM
concentration at 2 hr ([3]; 10 mg/kg oral, 10 mg/kg): 7.0 µM and 2.1 µM and 5.0 µM and 6.6 µM
concentration at 4 hr ([3]; 10 mg/kg oral, 10 mg/kg): 0.6 µM and 0.8 µM and 0.7 µM
concentration at 6 hr ([3]; 10 mg/kg oral, 10 mg/kg): 0.285 µM and 0.0 µM and 0.323 µM
concentration at 0.5 hr ([3]; 30 mg/kg oral, 30 mg/kg): 74.9 µM and 69.3 µM and 63.8 µM
concentration at 1.25 hr ([3]; 30 mg/kg oral, 30 mg/kg): 41.0 µM and 53.8 µM
concentration at 2 hr ([3]; 30 mg/kg oral, 30 mg/kg): 28.7 µM and 34.5 µM and 44.1 µM
concentration at 4 hr ([3]; 30 mg/kg oral, 30 mg/kg): 6.7 µM and 5.3 µM and 8.2 µM and 10.7 µM
concentration at 6 hr ([3]; 30 mg/kg oral, 30 mg/kg): 1.9 µM and 1.8 µM and 1.0 µM and 3.0 µM
